From ChEMBL document CHEMBL4229339, “Total syntheses and stereochemical reassignments of mollenines A and B” (Bioorg Med Chem Lett, 2018)
Active and inactive are the calls of the source.

How the values were obtained:
Escherichia coli = assay: Antibacterial activity against Escherichia coli at 5 uM; assay type: functional, organism-based
Candida albicans = assay: Antifungal activity against Candida albicans at 5 uM; assay type: functional, organism-based
Bacillus cereus = assay: Antibacterial activity against Bacillus cereus at 5 uM; assay type: functional, organism-based
Homo sapiens = species on record: Homo sapiens; assay: Cytotoxicity against human HeLa/Fucci cells at 5 uM; assay type: functional, cell-based

Measured: Activity

CC(C)=CC[C@@]12C[C@@H]3C(=O)N[C@@H](CC(C)C)C(=O)N3[C@@H]1Nc1ccccc12
inactive: all assays above

CC(C)=CC[C@@]12C[C@H]3C(=O)O[C@@H](CC(C)C)C(=O)N3[C@@H]1N(C=O)c1ccccc12
inactive: all assays above

CC(C)=CCC12CC3C(=O)OC(CC(C)C)C(=O)N3C1Nc1ccccc12 (single isomer, unassigned; (+))
inactive: all assays above

CC(C)=CC[C@@]12C[C@H]3C(=O)O[C@H](CC(C)C)C(=O)N3[C@@H]1Nc1ccccc12
inactive: all assays above

CC(C)=CC[C@@]12C[C@H]3C(=O)O[C@@H](CC(C)C)C(=O)N3[C@@H]1Nc1ccccc12
inactive: all assays above

CC(C)=CCC12CC3C(=O)OC(CC(C)C)C(=O)N3C1Nc1ccccc12 (stereo in doubt; (+)-7)
inactive: all assays above
